Tests used:
gelsolin [1] = molecular target: T1, gelsolin (Homo sapiens, UniProt P06396); assay: Steady-state fluorescence anisotropy of PIP2-F binding to gelsolin; settings: 5 μM gelsolin
T1 construct: His tag (cleaved yes); made in house; host or cells: E. coli Rosetta2 (DE3) pLysS, pSY5 plasmid
Description: His-tagged human wild-type gelsolin was expressed in E. coli strain Rosetta2 (DE3) pLysS cells from a pSY5 plasmid. […] Traces of calcium were removed by dialysis (2 mM Tris-HCl, 1 mM EGTA, pH 7.4, overnight). Rabbit skeletal muscle actin was prepared from acetone powder (Pel-Freez Biologicals) in a protocol modified from Spudich and Watt. Actin was stored in buffer A (2 mM Tris-HCl, 0.2 mM ATP (ATP disodium trihydrate, Sigma-Aldrich), 0.1 mM CaCl2 (pCa 4), 0.1 mM DTT and 0.005% NaN3, pH 7.4). Alexa Fluor^TM 488 C5 Maleimide (Life Technologies) was used to label cysteine residues of gelsolin based on the manufacturer’s recommendations (Thermo Fisher Scientific).
We used a fluorescent derivative of PIP2 (PtdIns-(4,5)-P2-fluorescein, Cayman Chemicals, NU-10010388, λex = 493 nm, λem = 520 nm, abbreviated as PIP2-F) and a fluorescent derivative of ATP (N^6-(6-amino)hexyl-ATP-ATTO-532, Jena Bioscience, NU-805-532, λex = 532 nm, λem = 553 nm, abbreviated as ATP-N) as probes for the binding of PIP2 and ATP to gelsolin. Fluorescence intensities were measured on a Safire^2 monochromator microplate reader (TECAN) at 22°C. Steady-state fluorescence anisotropy values were determined according to Eq 1 [65], where IVV and IVH, respectively, are the intensities of vertically and horizontally polarized emission on excitation with vertically polarized light, with the correction factor, G, being the ratio of IVH/IVV.
The dissociation constants for ATP and PIP2 were calculated using a hyperbolic model from anisotropy data that had reached saturation during the gelsolin titrations Eq 2: r=rf+(rb−rf)(Kd+[G]+[L]−(Kd+[G]+[L])^2−4[G][L]/2[L]) (2) where rf is the anisotropy of free ligand, rb is the anisotropy of gelsolin-bound ligand, [L] is the total concentration of ligand, Kd is the dissociation constant and [G] is the total concentration of gelsolin. The anisotropy of 0.5 μM ATP-N was measured in the presence of gelsolin concentrations: 0, 0.2, 1.5, 2, 3, 5 and 8 μM. […] The calcium and magnesium sensitivities of ATP binding to gelsolin were characterized by the change in anisotropy of solutions containing 0.5 μM ATP-N in the presence of 5 μM of gelsolin over a range of divalent cation concentrations of pCa 2–12 or pMg 1–12, where pCa and pMg refer to[…]. […] Anisotropy of 0.5 μM or 0.25 μM solutions of PIP2-F in the presence of 5 μM gelsolin was used to probe the changes in binding of the complexes under different calcium, magnesium, salt and ATP conditions.

gelsolin [2] = molecular target: T1, gelsolin; assay: Labeled/unlabeled ATP competition on gelsolin (ATP-N anisotropy); type: binding; settings: absence of calcium
Description: The dissociation constants for ATP and PIP2 were calculated using a hyperbolic model from anisotropy data that had reached saturation during the gelsolin titrations Eq 2: r=rf+(rb−rf)(Kd+[G]+[L]−(Kd+[G]+[L])^2−4[G][L]/2[L]) (2) where rf is the anisotropy of free ligand, rb is the anisotropy of gelsolin-bound ligand, [L] is the total concentration of ligand, Kd is the dissociation constant and [G] is the total concentration of gelsolin. The anisotropy of 0.5 μM ATP-N was measured in the presence of gelsolin concentrations: 0, 0.2, 1.5, 2, 3, 5 and 8 μM. Saturation was evident at 5 μM characterized by an anisotropy value of 0.15 ± 0.006. […]
Supplementary file pone.0201826.s002.pdf: S2 Fig ATP binding to gelsolin under actin polymerization conditions. (A) The calcium-dependent gelsolin binding affinity for ATP under actin polymerization conditions was determined by monitoring the change in ATP-N anisotropy on gelsolin titration at different calcium ion concentrations. Each data point arises from the Kd calculated from a titration similar to Fig 1A. […] (B) The anisotropy of ATP-N (0.5 μM) bound to gelsolin (5 μM) was measured upon titrating with unlabeled ATP in the absence of calcium. […]

gelsolin [3] = molecular target: T1, gelsolin; assay: Confocal microscopy of Alexa488-labeled gelsolin on PIP2-containing phospholipid vesicles; settings: 0.5 mM ATP, absence of divalent cations
Description: Phospholipid vesicles were prepared by a modified protocol from James H. Morrissey, Dept. of Biochemistry, University of Illinois at Urbana-Champaign, Urbana, IL 61801, USA (https://tf7.org). A mixture of 1% PIP2 (PtdIns-(4,5)-P2(1,2-dipalmitoyl)) (Cayman Chemicals), 79% PC (L-α-phosphatidylcholine) (Sigma-Aldrich) and 20% PS (3-sn-phosphatidyl-L-serine) (Sigma-Aldrich) was dissolved in 20 μM rhodamine 590 N-succinimidyl ester (Sigma-Aldrich) in chloroform. […]
10% (v/v) rhodamine590-filled phospholipid vesicles and 5 μM Alexa488-labeled gelsolin were incubated together and a drop of the mixture was placed on a clean glass slide, which was then covered by and separated from a second slide by a parafilm gasket. […] Fluorescence emission-based imaging was carried out using a Zeiss LSM 510 META Confocal Microscope. The two different fluorophores were detected in two separate channels; Alexa488 (gelsolin) was excited by 477 nm laser light and emission was detected in the 505–530 nm channel, while rhodamine590 (phospholipid vesicles) was excited by 545 nm laser light and emission was detected in the 585–630 nm channel.

gelsolin [4] = settings: equilibrium dialysis, high NaCl concentrations; read-out: dissociation constant for gelsolin; cited from earlier work
calcium-free gelsolin = molecular target: calcium-free gelsolin; design: method as in PMID 10336615; settings: cited from earlier work
[5] = Critical micelle concentration by dynamic light scattering; type: physicochemical
Description: tested, PIP2-F was free from micelle formation at concentrations of 0.5 µM or below, whereas […]
Methods: The critical micelle concentrations of PIP2 and 1-(1-octadecanoyl-fluorescein-2R-octadecanoylphosphatidyl)inositol-4,5-bisphosphate (Cayman Chemical, abbreviated as PIP2-F) were determined by dynamic light scattering (Huang et al., 2011). Fifty microliter samples were prepared by serial dilution of PIP2 or PIP2-F into a low salt buffer (2 mM Tris-HCl, pH 7.4), or the same buffer supplemented with 100 mM KCl, 1 mM MgCl2, and/or 1 mM CaCl2. After incubation for 30 min, the samples were centrifuged at 15,000 x g for 10 min, transferred into a 384-well clear bottom plate, and light scattering was measured using a Wyatt Dynapro plate reader at room temperature. The concentrations of PIP2-F were subsequently determined by light absorbance at 494 nm with a Nanodrop spectrophotometer. […]
Huang, W., Jiang, D., Wang, X., Wang, K., Sims, C. E., Allbritton, N. L. and Zhang, Q.

[6] = Calcium-dependent fluorescence emission of FURA-2FF; type: binding; settings: inferred from unchanged FURA-2FF profile with 20 μM PIP2
Description: Supplementary file pone.0201826.s005.pdf: S5 Fig Assessment of the effects of calcium and ATP on the binding of ATP-N and PIP2-F to gelsolin. (A) Kds were calculated from the fit data with Eq 2 of gelsolin:PIP2-F binding under different calcium concentrations in the absence or presence of ATP. In the absence of ATP, PIP2-F (0.5 μM) binds to gelsolin, as reflected by thehigh affinity, across a wide range of calcium concentrations. […] (B) In the absence of gelsolin, calcium directly precipitates ATP-N (C, open triangles) with a half-maximum value of 70.4 ± 0.7 μM. Magnesium has no effect on the fluorescence emission of ATP-N either in the absence (M, orange circles) or presence of 10 μM calcium (MC, purple squares). Data were fitted with simple sigmoidal curves. (C) The reported FURA-2FF dissociation constant for calcium ions is 25 μM (A.G. Scientific Inc.). The calcium-dependent fluorescence emission profile of FURA-2FF (2 μM) over pCa range of 5–7 was similar in the presence and absence of 20 μM PIP2, which were fitted with simple sigmoidal curves. […] The measurement was carried out with a Perkin Elmer LS-55 spectrofluorimeter (λex = 340 nm, λem = 505 nm). (PDF) Click here for additional data file.

T1 sequence (P06396 28-782): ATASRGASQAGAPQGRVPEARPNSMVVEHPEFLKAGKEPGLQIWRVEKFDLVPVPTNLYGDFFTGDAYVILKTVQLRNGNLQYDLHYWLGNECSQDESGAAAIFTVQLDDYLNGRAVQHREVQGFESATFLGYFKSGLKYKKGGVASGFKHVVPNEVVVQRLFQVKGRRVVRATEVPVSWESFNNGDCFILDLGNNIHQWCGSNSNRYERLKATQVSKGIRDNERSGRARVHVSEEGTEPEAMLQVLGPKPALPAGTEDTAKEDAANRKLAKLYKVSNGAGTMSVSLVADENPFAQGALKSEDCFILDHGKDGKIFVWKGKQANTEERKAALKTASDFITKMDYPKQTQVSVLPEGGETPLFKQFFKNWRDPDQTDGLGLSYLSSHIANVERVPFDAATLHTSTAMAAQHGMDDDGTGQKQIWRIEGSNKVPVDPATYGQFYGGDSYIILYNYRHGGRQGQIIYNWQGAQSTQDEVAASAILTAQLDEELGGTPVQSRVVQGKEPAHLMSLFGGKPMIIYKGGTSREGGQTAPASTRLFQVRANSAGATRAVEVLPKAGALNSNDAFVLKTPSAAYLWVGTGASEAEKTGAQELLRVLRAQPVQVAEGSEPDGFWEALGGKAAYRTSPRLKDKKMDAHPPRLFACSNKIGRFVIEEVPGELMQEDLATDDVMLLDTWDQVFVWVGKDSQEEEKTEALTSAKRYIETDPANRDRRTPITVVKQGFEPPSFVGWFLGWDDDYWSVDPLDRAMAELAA

Nc1ncnc2c1ncn2[C@@H]1O[C@H](COP(=O)(O)OP(=O)(O)OP(=O)([O-])[O-])[C@@H](O)[C@H]1O.O.O.O.[Na+].[Na+] [ATP, ATP disodium trihydrate]
effect of ATP on PIP2-F anisotropy (gelsolin [1]; 0.5 mM ATP, 0.25 μM PIP2-F, 100 mM K+, 1 mM Mg2+, entire calcium range, absence and presence of 50 μM actin): almost complete loss of PIP2-F anisotropy
effect of ATP on the gelsolin/PIP2-F complex (gelsolin [1]; 0.2 or 0.5 mM ATP, 0.5 μM PIP2-F): complete dissociation of the gelsolin/PIP2-F complex
ATP concentration sufficient to remove the gelsolin bound ATP-N (gelsolin [2]; 0.5 μM ATP-N, 5 μM gelsolin): 50 µM
Kd (gelsolin [2]; 50 mM KCl, 1 mM MgCl2 (actin polymerizing salt), competition with ATP-N): 2200 nM
release of gelsolin-Alexa488 from PIP2-containing vesicles (gelsolin [3]): the majority of gelsolin-Alexa488 was released from the vesicles
Kd (gelsolin [4]): 280 nM
Kd (calcium-free gelsolin; Gremm and Wegner, read-out: Kd of calcium-free gelsolin for ATP): 32000 nM
ATP binding to gelsolin (calcium-free gelsolin; solutions with more than 10 μM Ca2+ (pCa 5)): No ATP binding to gelsolin is detectable

phosphatidylinositol 4,5-bisphosphate [PIP2]
CMC of PIP2 ([5]; 100 mM KCl and 1 mM MgCl2, nominal concentrations): < 1 µM
CMC of PIP2 ([5]; 100 mM KCl, nominal concentrations): 2 µM
CMC of PIP2 ([5]; absence of cations, nominal concentrations): 20 µM
CMC of PIP2 ([5]; calcium in the buffer, considered an overestimation): ~ 10 μM
Kd [6]: ≥ 25000 nM
